Data from publication PMC3867380, “Fluorescence Imaging-Based High-Throughput Screening of Fast- and Slow-Cycling LOV Proteins” (PLoS ONE, 2013).

Legend:
[1] = molecular target: T1, AsLOV2 (second LOV domain of Avena sativa phototropin 1) (Avena sativa, UniProt O49003, N425S/I427L/I466M); assay: flavin fluorescence recovery imaging in E. coli colonies after blue light; type: cell-based; conditions: colonies on agar, on ice and 25 °C; endogenous flavin; blue-light-induced reversible covalent adduct
T1 construct: gene NPH1-1; LOV2 domain with J-alpha helix, residues 404-560; N-terminal 6xHis tag; synthetic cDNA with mammalian codons in pCold I; E. coli DH5alpha; TALON purified

[2] = molecular target: T2, AsLOV2 (second LOV domain of Avena sativa phototropin 1) (Avena sativa, UniProt O49003, V416T/T418S); assay: as above; type: cell-based; conditions: colonies on agar, on ice and 25 °C; endogenous flavin; blue-light-induced reversible covalent adduct
T2 construct: gene NPH1-1; LOV2 domain with J-alpha helix, residues 404-560; N-terminal 6xHis tag; synthetic cDNA with mammalian codons in pCold I; E. coli DH5alpha; TALON purified

[3] = molecular target: T3, AsLOV2 (second LOV domain of Avena sativa phototropin 1) (Avena sativa, UniProt O49003, N425Q/I427V); assay: as above; type: cell-based; conditions: colonies on agar, on ice and 25 °C; endogenous flavin; blue-light-induced reversible covalent adduct
T3 construct: gene NPH1-1; LOV2 domain with J-alpha helix, residues 404-560; N-terminal 6xHis tag; synthetic cDNA with mammalian codons in pCold I; E. coli DH5alpha; TALON purified

[4] = molecular target: T4, AsLOV2 (second LOV domain of Avena sativa phototropin 1) (Avena sativa, UniProt O49003); assay: absorption and fluorescence spectra of co-purified flavin; photoadduct formation and dark recovery at […] nm; type: binding; conditions: room temperature; pH 7.5; flavin co-purified from E. coli; blue-light-induced reversible covalent adduct with Cys450
T4 construct: gene NPH1-1; LOV2 domain with J-alpha helix, residues 404-560; N-terminal 6xHis tag; synthetic cDNA with mammalian codons in pCold I; E. coli DH5alpha; TALON purified

[5] = molecular target: T5, AsLOV2 (second LOV domain of Avena sativa phototropin 1) (Avena sativa, UniProt O49003, V416C/T418P/N425P/I466V/F494K); assay: flavin fluorescence recovery imaging in E. coli colonies after blue light; type: cell-based; conditions: colonies on agar, 50 °C and 25 °C; endogenous flavin; blue-light-induced reversible covalent adduct
T5 construct: gene NPH1-1; LOV2 domain with J-alpha helix, residues 404-560; N-terminal 6xHis tag; synthetic cDNA with mammalian codons in pCold I; E. coli DH5alpha; TALON purified
T5 sequence (O49003 entry or part of it V416C/T418P/N425P/I466V/F494K): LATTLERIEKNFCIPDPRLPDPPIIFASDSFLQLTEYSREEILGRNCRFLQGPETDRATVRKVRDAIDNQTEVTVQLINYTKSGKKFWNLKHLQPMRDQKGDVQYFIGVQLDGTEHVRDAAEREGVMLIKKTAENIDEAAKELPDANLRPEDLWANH

T2 sequence (O49003 entry or part of it V416T/T418S): as the sequence (O49003 entry or part of it V416C/T418P/N425P/I466V/F494K) above, with C13T, P15S, P22N, V63I, K91F counted along it
T4 sequence (O49003 entry or part of it): as the sequence (O49003 entry or part of it V416C/T418P/N425P/I466V/F494K) above, with C13V, P15T, P22N, V63I, K91F counted along it
T3 sequence (O49003 entry or part of it N425Q/I427V): as the sequence (O49003 entry or part of it V416C/T418P/N425P/I466V/F494K) above, with C13V, P15T, P22Q, I24V, V63I, K91F counted along it
T1 sequence (O49003 entry or part of it N425S/I427L/I466M): as the sequence (O49003 entry or part of it V416C/T418P/N425P/I466V/F494K) above, with C13V, P15T, P22S, I24L, V63M, K91F counted along it

Cc1cc2nc3c(=O)[nH]c(=O)nc-3n(C[C@H](O)[C@H](O)[C@H](O)COP(=O)(O)O)c2cc1C [FMN]
flavin fluorescence recovery imaging in E. coli colonies after blue light [1]: substitution of V416T, N425Q/I427V, N425S/I427L/I466M and V416T/T418S exhibited particularly faster thermal reversion kinetics | flavin fluorescence recovery imaging in E. coli colonies after blue light [2]: V416T/T418S exhibited particularly faster thermal reversion kinetics than others | flavin fluorescence recovery imaging in E. coli colonies after blue light [3]: substitution of V416T, N425Q/I427V, N425S/I427L/I466M and V416T/T418S exhibited particularly faster thermal reversion kinetics | absorption and fluorescence spectra of co-purified flavin; photoadduct formation [4]: AsLOV2 is a photosensory domain that binds with FMN as a cofactor | flavin fluorescence recovery imaging in E. coli colonies after blue light [5]: AsLOV2-V416L and AsLOV2-V416C/T418P/N425P/I466V/F494K exhibited particularly slower thermal reversion kinetics than others
